Results taken from paper PMC13330650 (Matrix biology : journal of the International Society for …, 2025).
Like-named read-outs stand apart in the source and are kept apart here.

Assays:
[1] = tested on: UGDH pS316 in LNCaP cells; test: western blot of UGDH pS316 (anti-p-Akt substrate) in LNCaP whole cell lysates; format: cell-based, human
From the text: To validate the phosphorylation of UGDH by RSK2, S6K1, and SGK1 in a cellular context, we used a western analysis that capitalized on the general reactivity of an antibody generated against the phosphorylated AGC kinase motif (RxRxxpS/T) for targets of Akt, which is also a member of this kinase family. To validate the assay, we first compared phosphorylation of S316 in the in vitro kinase assay using purified recombinant UGDH. […] We further validated using serum starved LNCaP cells treated with EGF to stimulate activity of RSK2 [26] and S6K1 [27], or DHT to activate SGK1 [28], prior to lysate harvest.
(§1) Cell treatments were conducted as follows, except where described. To stimulate phosphorylation of UGDH at S316 for Western blot analysis, cells were cultured in replete medium until they reached 70 % confluence. Seventy-two hours prior to harvest, medium was replaced with phenol-red-free media containing 5 % CS-FBS to reduce androgen signaling. Twenty-four hours prior to harvest, medium was replaced with phenol-red-free media containing 10 % CS-FBS plus 10 nM DHT or vehicle control. EGF (20ng/mL) or vehicle control were added to cell media twenty minutes prior to harvest. For assessment of UGDH pS316 in these conditions with kinase inhibition, assays were repeated with kinase inhibitors added alongside EGF, DHT, and controls. Kinase inhibitor treatment concentrations were optimized based on published efficacy ranges and the following were used for all assays: BIX02565 (20 μM), PF4708671 (20 μM), GSK650394 (40 μM). Proliferation assays were performed with 10 μM enzalutamide (enz) added as described below, and 3D assays were performed with 1 μM enz added during seeding as described. For click chemistry quantification of glycans in cells treated with 4-MU, 10 μM was added to cell medium during the addition of the click labeling reagents.
Media were aspirated from cells, and a portion kept for analysis of HA content. Cells were washed with 2 mL cold 1x PBS, scraped into 1 mL of cold 1xPBS, pelleted by centrifugation, and lysed with 1x RIPA buffer supplemented with 1x protease inhibitor cocktail. For analysis of phosphoprotein expression, 1x phosphatase inhibitor was added to the lysis buffer. Bradford assay was performed to quantify protein content of cell lysates. Blots were imaged and quantified through fluorescence emission using the Odyssey Infrared Imaging System (LI-COR Biosciences, Lincoln, NE, USA). β-tubulin or GAPDH were used to normalize protein expression. Each analysis was plotted for three technical replicates of a representative experiment that was repeated at least three times. Statistical significance was assessed by one-way ANOVA followed by Tukey’s post hoc test for multiple comparisons.

[2] = tested on: LNCaP cell lines (VC, UGDH WT (OE), UGDH S316D, UGDH S316A); test: proliferation assay (resazurin conversion to resorufin); format: cell-based, human
Protocol: as §1
For basal growth, 5 × 10^4 cells of each line were cultured in 24-well plates in standard steroid-replete media. Cell proliferation was measured daily for three days in replicate plates incubated for 2 h with media containing 10 % resazurin, after which fluorescence of the reduced product, resorufin, was measured (560Ex/590Em) in a microplate reader. To assess the impacts of kinase inhibition on cell growth, assays were repeated in the presence of inhibitors individually and in combination. For androgen-mediated cell growth with kinase inhibition, cells were cultured in 24-well plates in standard steroid-replete media. After 12 h, media were first removed and replaced with media containing 5 % CS-FBS (androgen-depleted conditions) for 48 h, and then media were removed and replaced with media containing 10 % CS-FBS plus 10 nM DHT and kinase inhibitors for another 48 h. Cell proliferation was measured daily as described above beginning when cells were switched to androgen free conditions. For enz treatments, cells were cultured in 24-well plates in standard steroid-replete media. After 12 h, media were replaced with replete media containing vehicle or 10 μM enz and vehicle or kinase inhibitors. For assays with kinase inhibition, cell proliferation was measured daily as described above beginning when cells were switched to the respective treatment condition. Cell numbers were extrapolated from fluorescence values by comparison to a standard curve for each respective cell line, and cell count at the end of the experiment was normalized to cell count on day zero directly following media replacement. All data were plotted for four technical replicates of experiments that were repeated three times. Statistical significance was assessed by one-way ANOVA followed by Tukey’s post hoc test for multiple comparisons.

With `C[C@]12CCC(=O)C[C@@H]1CC[C@@H]1[C@@H]2CC[C@]2(C)[C@@H](O)CC[C@@H]12` [DHT, 5α-Androstan-17β-ol-3-one] the “stimulation of UGDH phosphorylation in whole cell lysates” value [1] was “Strong stimulation”.
`O=C(O)c1ccc(-c2c[nH]c3ncc(-c4ccccc4)cc23)cc1C1CCCC1` [GSK650394] was tested, and the “DHT-stimulated p-UGDH band” value ([1]; LNCaP cells, 10 nM DHT, GSK650394 40 μM) was “virtually eliminated”, the “cell proliferation after serum and steroid depletion” value ([2]; GSK650394 40 μM, depleted 48 h, then serum and 10 nM DHT) was “significant impacts were observed” and the “cell proliferation in replete medium” value ([2]; GSK650394 40 μM, replete medium, not shown) was “did not abrogate cell proliferation”.
`CCc1cncnc1N1CCN(Cc2nc3ccc(C(F)(F)F)cc3[nH]2)CC1` [PF4708671] was tested, and the “EGF-stimulated p-UGDH band intensity” value ([1]; LNCaP cells, EGF 20ng/mL, inhibitor 20 μM) was “significantly reduced” and the “cell number / proliferation, single kinase inhibitor” value ([2]; all lines, 3-day, inhibitor 20 μM, replete media) was “reduced proliferation in all lines”.
In the case of “EGF: growth factor used to stimulate activity of RSK2 and S6K1”, the “stimulation of UGDH phosphorylation in whole cell lysates” value ([1]; serum starved LNCaP cells, EGF 20ng/mL or 10 nM DHT) is reported as “Strong stimulation”.
